Assay results: patent US20230201190A1, “USE OF MULTI[…] FOR TREATING THE RESPIRATORY DISTRESS AND CYTOKINE STORM SYNDROMES ASSOCIATED WITH C[…] INFECTIONS” (H4 ORPHAN PHARMA, priority 2020, published 2023)

Columns and labels:
[1] = noted by the HAS; cited from earlier work
[2] = system: BL6 mice sensitised to OVA receiving double-stranded RNA (Poly U/Poly A); assay: Whole body plethysmography (PenH) in OVA-sensitised mice given double-stranded RNA poly(A:U); assay type: in vivo, mouse
Experimental: The inventors used a C57/B16J mouse model, hereafter referred to as BL6.
The protocol simulating a double-stranded RNA viral infection has been performed with 2 groups of 15 mice; these are 8 week old female mice. A control group treated only with saline served as a negative control.
BL6 mice are treated according to the protocol below. BL6 mice have been sensitised by intraperitoneal injections of […] OVA (ovalbumin) on days 0, 2 and 4. Thereafter, from day 10 to day 15, the mice have received a daily treatment with aerosolized OVA at the concentration of 20 mg/ml or saline for 20 min, using an ultrasound nebulizer (Ultra-Neb99). One hour later, the mice received […] of poly (A:U) or saline intranasally.
Group 3 which is sensitised to OVA and also receives double stranded RNA (Poly U/Poly A) according to the protocol described above but also tritoqualine at 10 mg/kg.
Each group is analysed by whole body plethysmography and the measurements are expressed in PenH. A measurement is performed every minute until 10 minutes after the introduction of the double-stranded RNA. Tritoqualine treatment is given 1 hour before the introduction of Poly U/Poly A (double-stranded RNA).
In group 3, which is the group treated with tritoqualine at a dose of 10 mg/kg (mice with viral infection after sensitisation to ovalbumin as well) there are have the following results at time 1 minute to 10 minutes, expressed in PenH units and averaged over 15 mice: […]

[3] = system: CD63 expression on basophils; assay: Flow CAST basophil activation test, anti-FcεRI antibody stimulation, CD63/CCR3 flow cytometry on whole blood; assay type: cell-based, human
Excerpt: To study this modulating action of CD63 by tritoqualine, the inventors have used the basophil and a modified commercial test, the Flow CAST® kit from BULHMANN Laboratories AG (Switzerland), which is a Basophil Activation Test (BAT) that can be used for the in vitro detection of basophil degranulation as well as for the study of immediate type allergic reactions and hypersensitivities.
The test is designed for the in vitro diagnosis of CD63 expression as a surface marker of activated basophils. The test is performed on whole blood; flow cytometry is used to quantify CD63 expression on the surface of activated basophils.
To evaluate degranulation via CD63 expression, the Flow CAST® kit has been partially used. This test includes an anti-IgE receptor. The inventors have only used the latter activator.
These different couplings make it possible to characterise cells separately and in particular basophils. 4 windowing zones will be distinguished according to whether or not CD63 labelling is observed and whether or not CCR3 labelling is observed • CD63+ and CCR3− which characterise non-basophilic degranulated cells. • CD63+ and CCR3+ which characterise degranulated basophils. • CD63− and CCR3− which characterise non-degranulated non-basophilic cells. • CD63− and CCR3+ which characterise non-degranulated basophils.
The degranulation protocol has been carried out using the Flow CAST. […]

[4] = Light sensitivity of the powder; assay type: physicochemical; details: white powder; degrades to Cotarnine and phthalic acid
[5] = target: T1, histidine decarboxylase (Homo sapiens, UniProt P19113); details: cited from earlier work
T1 sequence (P19113 1-662): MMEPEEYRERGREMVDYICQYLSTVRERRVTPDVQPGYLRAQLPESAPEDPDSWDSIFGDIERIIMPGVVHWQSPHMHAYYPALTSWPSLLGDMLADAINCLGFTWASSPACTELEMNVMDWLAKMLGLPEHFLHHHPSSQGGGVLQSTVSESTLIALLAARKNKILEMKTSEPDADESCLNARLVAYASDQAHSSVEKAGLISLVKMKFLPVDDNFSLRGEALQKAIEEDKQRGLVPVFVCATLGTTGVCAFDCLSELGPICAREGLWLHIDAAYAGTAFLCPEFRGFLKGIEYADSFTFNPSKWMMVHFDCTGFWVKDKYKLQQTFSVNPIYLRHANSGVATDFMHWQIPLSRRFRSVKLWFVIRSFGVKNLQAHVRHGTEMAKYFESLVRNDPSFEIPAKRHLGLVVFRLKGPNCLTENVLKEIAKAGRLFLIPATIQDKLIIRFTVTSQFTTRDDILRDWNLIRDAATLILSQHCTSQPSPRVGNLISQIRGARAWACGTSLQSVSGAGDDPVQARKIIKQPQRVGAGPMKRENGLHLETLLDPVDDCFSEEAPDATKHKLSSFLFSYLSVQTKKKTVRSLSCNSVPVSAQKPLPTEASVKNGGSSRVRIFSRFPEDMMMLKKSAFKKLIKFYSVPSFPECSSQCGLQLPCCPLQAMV

[6] = system: TGF-β activation; details: alveolar macrophages from healthy volunteers, dose and exposure dependent; cited from earlier work

COC(=O)c1ccc2c(c1)NC(=O)/C2=C(\Nc1ccc(N(C)C(=O)CN2CCN(C)CC2)cc1)c1ccccc1 [OFEV, Nintedanib]
side effects [1]: ~92%

CCOc1c(N)c2c(c(OCC)c1OCC)C(C1c3c(cc4c(c3OC)OCO4)CCN1C)OC2=O (centres unmarked) [tritoqualine, 7-amino-4,5,6-triethoxy-3-(5,6,7,8-tetrahydro-4-methoxy-6-methyl-1,3-dioxolo[4,5-g]isoquinolin-5-yl)phthalide]
difference in airway resistance between tritoqualine group and untreated group (statistical analysis) ([2]; 10 mg/kg, p<0.001): highly significant
airway resistance, mean of 15 mice ([2]; T1 (1 minute after double-stranded RNA), tritoqualine 10 mg/kg given 1 hour before): 3.05 PenH
airway resistance, mean of 15 mice ([2]; T2 (2 minutes), tritoqualine 10 mg/kg): 3.11 PenH
airway resistance, mean of 15 mice ([2]; T3 (3 minutes), tritoqualine 10 mg/kg): 3.13 PenH
airway resistance, mean of 15 mice ([2]; T4 (4 minutes), tritoqualine 10 mg/kg): 3.97 PenH
airway resistance, mean of 15 mice ([2]; T5 (5 minutes), tritoqualine 10 mg/kg): 4.07 PenH
airway resistance, mean of 15 mice ([2]; T6 (6 minutes), tritoqualine 10 mg/kg): 4.14 PenH
airway resistance, mean of 15 mice ([2]; T7 (7 minutes), tritoqualine 10 mg/kg): 4.02 PenH
airway resistance, mean of 15 mice ([2]; T8 (8 minutes), tritoqualine 10 mg/kg): 3.85 PenH
airway resistance, mean of 15 mice ([2]; T9 (9 minutes), tritoqualine 10 mg/kg): 3.14 PenH
airway resistance, mean of 15 mice ([2]; T10 (10 minutes), tritoqualine 10 mg/kg): 2.74 PenH
cells still expressing CD63 ([3]; tritoqualine 5 μmol): approximately 40%
cells still expressing CD63 ([3]; tritoqualine 10 μmol): less than 2%
sensitivity to light [4]: very sensitive to light
inhibitory action on histidine decarboxylase [5]: very weak

COCCN(CCCCc1ccc2c(n1)NCCC2)CC[C@H](Nc1ncnc2ccccc12)C(=O)O [PLN-74809]
inhibition of TGF-β activation [6]: up to 70%
